SMILES strings stand for the structures. Structures can show the parent of a compound that is named as a salt.

One experiment concerns Rattenherzen.
Experiment: not given
Particulars: isolated rat hearts; Eur. Heart J. 9 (suppl. 1): 167 (1988); cited from earlier work.
As to `NC(N)=NC(=O)c1nc(Cl)c(N)nc1N` [Amilorid], the “künstlich ausgelöstes Kammerflimmern” value was “völlig unterdrückt”.

Take `CCN(c1nc(N)c(C(=O)N=C(N)N)nc1Cl)C(C)C` [Ethylisopropylamilorid]: the “künstlich ausgelöstes Kammerflimmern” value was “Noch potenter als Amilorid”.

A further experiment deals with T1, Na⁺/H⁺-Exchanger (Oryctolagus cuniculus, UniProt P23791).
T1 construct: den Na⁺-Influx in die Erythrocyten via Na⁺/H⁺-Austausch flammenphotometrisch bestimmen zu können; from tissue; host or cells: Erythrocytes in whole blood from ear arteries of cholesterol-fed White New Zealand rabbits (Ivanovas)
T1 sequence (P23791 whole entry): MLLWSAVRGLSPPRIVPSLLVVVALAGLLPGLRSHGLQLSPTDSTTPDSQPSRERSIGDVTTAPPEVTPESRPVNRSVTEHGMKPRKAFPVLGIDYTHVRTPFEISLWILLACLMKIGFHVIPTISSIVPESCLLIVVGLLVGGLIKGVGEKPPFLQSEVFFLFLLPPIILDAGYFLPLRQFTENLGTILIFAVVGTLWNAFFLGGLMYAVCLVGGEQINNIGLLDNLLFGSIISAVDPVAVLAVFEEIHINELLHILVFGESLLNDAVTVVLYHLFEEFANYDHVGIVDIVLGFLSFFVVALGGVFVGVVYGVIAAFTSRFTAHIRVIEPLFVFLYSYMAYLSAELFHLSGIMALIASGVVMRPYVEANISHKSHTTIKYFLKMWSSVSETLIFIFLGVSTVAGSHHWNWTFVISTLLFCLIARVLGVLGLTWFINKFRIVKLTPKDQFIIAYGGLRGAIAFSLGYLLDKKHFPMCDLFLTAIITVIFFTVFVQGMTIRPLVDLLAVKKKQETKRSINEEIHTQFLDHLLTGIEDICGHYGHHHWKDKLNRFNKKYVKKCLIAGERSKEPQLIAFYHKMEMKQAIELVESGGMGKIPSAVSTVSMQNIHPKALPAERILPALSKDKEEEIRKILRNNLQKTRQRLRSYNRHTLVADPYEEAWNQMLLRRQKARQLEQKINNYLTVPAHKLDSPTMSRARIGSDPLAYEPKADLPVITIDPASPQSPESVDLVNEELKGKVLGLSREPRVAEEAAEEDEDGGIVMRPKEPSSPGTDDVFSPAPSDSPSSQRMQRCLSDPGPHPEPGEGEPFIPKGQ
Nature of the experiment: Inhibition of the Na+/H+ exchanger of rabbit erythrocytes (amiloride-sensitive Na+ influx, flame photometry). Format: cell-based, Kaninchen. To be noted: Kaninchenerythrocyten; hyperosmolar salt-sucrose medium, pH 7,4, 37°C; rabbits on 2% cholesterol diet; read-out: IC₅₀. The text has this: Inhibition des Na⁺/H⁺-Exchangers von Kaninchenerythrocyten
Weiße Neuseeland-Kaninchen (Ivanovas) erhielten eine Standard-Diät mit 2% Cholesterin für sechs Wochen, um den Na⁺/H⁺-Austausch zu aktivieren und so den Na⁺-Influx in die Erythrocyten via Na⁺/H⁺-Austausch flammenphotometrisch bestimmen zu können. Das Blut wurde den Ohrarterien entnommen und durch 25 IE Kalium-Heparin ungerinnbar gemacht. Ein Teil jeder Probe wurde zur Doppelbestimmung des Hämatokrits durch Zentrifugieren benutzt. Aliquots von jeweils 100 µl dienten zur Messung des Na⁺-Ausgangsgehalts der Erythrocyten.
Um den Amilorid-sensitiven Natrium-Influx zu bestimmen, wurden 100 µl jeder Blutprobe in jeweils 5 ml eines hyperosmolaren Salz-Sucrose-Mediums (mmol/l: 140 NaCl, 3 KCl, 150 Sucrose, 0,1 Ouabain, 20 Tris-hydroxymethylaminomethan) bei pH 7,4 und 37°C inkubiert. Die Erythrocyten wurden danach dreimal mit eiskalter MgCl₂-Ouabain-Lösung (mmol/l: 112 MgCl₂, 0,1 Ouabain) gewaschen und in 2,0 ml destilliertem Wasser hämolysiert. Der intrazelluläre Natriumgehalt wurde flammenphotometrisch bestimmt.
Der Na⁺ -Nettoinflux wurde aus der Differenz zwischen Natrium-Ausgangswerten und dem Natriumgehalt der Erythrocyten nach Inkubation errechnet. Der Amilorid-hemmbare Natrium-Influx ergab sich aus der Differenz des Natriumgehalts der Erythrocyten nach Inkubation mit und ohne Amilorid 3 x 10⁻⁴ mol/l. Auf diese Weise wurde auch bei den erfindungsgemäßen Verbindungen verfahren.
`CCn1c(C(=O)N=C(N)N)cc2cc(Cl)ccc21` [Beispiel 52, 5-Chlor-1-ethyl-2-indolylcarbonyl-guanidin-hydrochlorid]: the IC50 worked out at 0.04 µM.

With `CCCn1c(C(=O)N=C(N)N)cc2cc(Cl)ccc21` [Beispiel 53, 5-Chlor-1-propyl-2-indolylcarbonyl-guanidin-hydrochlorid], the IC50 stood at 0.05 µM.

As to `CCCCn1c(C(=O)N=C(N)N)cc2cc(Cl)ccc21` [Beispiel 54, 5-Chlor-1-butyl-2-indolylcarbonyl-guanidin-hydrochlorid], the IC50 is 0.2 µM.

As for `NC(N)=NC(=O)c1cc2cc(Cl)ccc2n1Cc1ccncc1` [Beispiel 61, 5-Chlor-1-(4-picolyl)-2-indolylcarbonyl-guanidin-dihydrochlorid], the IC50 came out at 0.3 µM.

As to `Cn1c(C(=O)N=C(N)N)c(Cl)c2cc(Cl)ccc21` [Beispiel 69, 3,5-Dichlor-1-methyl-2-indolylcarbonyl-guanidin-hydrochlorid], the IC50 came out at 0.05 µM.

For `Cn1c(C(=O)N=C(N)N)c(Cl)c2cc(F)ccc21` [Beispiel 86, 3-Chlor-5-fluor-1-methylindolyl-2-carbonsäureguanidid Hydrochlorid], the IC50 is 0.03 µM.

Take `CN1c2ccccc2CC1C(=O)N=C(N)N` (stereo not shown) [Beispiel 104, 1-Methylindolin-2-carbonsäure-guanidid-hydrochlorid]: the IC50 came out at 0.2 µM.

For the compound `CN1c2ccc(F)cc2CC1C(=O)N=C(N)N` (stereo not shown) [Beispiel 106, 5-Fluor-1-methylindolin-2-carbonsäureguanidid Hydrochlorid], the IC50 worked out at 0.05 µM.

The values are drawn from EP0639573A1, “Benzocondensed five membered heterocycles, process of their preparation, their use as drug, as diagnostic means and pharmaceuticals containing it” (HOECHST AKTIENGESELLSCHAFT, priority 1993, dated 1995).
